Data: US20230203041A1, “ANTAGONISTS OF THE ADENOSINE A2A RECEPTOR” (AdoRx Therapeutics Limited, priority 2020, published 2023)
pIC50, pKi: −log10 of the molar value.

Tests used:
[1] = molecular target: T1, human Adenosine A2a receptor (Homo sapiens, UniProt P29274); test: Adenosine receptor TR-FRET binding assay (CA200645 displacement), A2a; settings: 100 nM CA200645, CHO cell membranes, 2 hours at room temperature
T1 construct: expressed in transfected cells; host or cells: CHO cell membranes

[2] = molecular target: T2, human Adenosine A2b receptor (Homo sapiens, UniProt P29275); test: Adenosine receptor TR-FRET binding assay (CA200645 displacement), A2b; settings: 30 nM CA200645, CHO cell membranes, 2 hours at room temperature
T2 construct: expressed in transfected cells; host or cells: CHO cell membranes
T2 sequence (P29275 1-332): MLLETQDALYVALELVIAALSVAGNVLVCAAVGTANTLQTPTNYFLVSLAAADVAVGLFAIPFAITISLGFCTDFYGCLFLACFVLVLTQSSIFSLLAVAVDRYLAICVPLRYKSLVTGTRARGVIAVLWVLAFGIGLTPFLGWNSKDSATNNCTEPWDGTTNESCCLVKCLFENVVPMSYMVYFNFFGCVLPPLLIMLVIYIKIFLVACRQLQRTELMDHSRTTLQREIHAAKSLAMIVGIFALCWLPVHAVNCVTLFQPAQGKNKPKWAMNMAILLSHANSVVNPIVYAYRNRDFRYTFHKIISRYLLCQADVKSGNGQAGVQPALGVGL

[3] = test system: human PBMCs; test: CD3/CD28 stimulated IL-2 release NECA reversal assay in human PBMCs; format: cell-based; settings: PBMC, CD3/CD28 antibody stimulated, 1 uM NECA, 24 hours, IL-2 in culture supernatant;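 also: dose-response as % inhibition where 100% equals no-NECA control wells with CD3/CD28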
Procedure: Blood is drawn from healthy volunteers using sodium citrate as the anticoagulant (0.3% final concentration). After centrifugation of the blood over Histopaque-1077, PBMCs are collected from the Histopaque/plasma interface and washed twice in PBS (300 g for 10 mins at room temp). Cells are plated at 50,000 cells/well in 150 μl RPMI/10% FCS in 96-well cell culture plates that have been precoated with 1 ug/ml CD3 antibody. 50 μl diluted compound mix is added to the cells, to obtain final concentrations of 1 ug/ml CD28 antibody, 1 uM NECA and 0.003-10 μM adenosine receptor antagonist. Assay plates are incubated for 24 hours at 37° C. in a humidified incubator. Culture supernatant is tested for IL-2 levels using the human IL-2 Tissue Culture Kit (Meso Scale Discovery).

[4] = test system: CD8+ T cells in human whole blood; test: Measurement of pCREB in CD8+ T cells in human whole blood; format: cell-based; settings: T-cell, 1 h; heparinised human whole blood, rolipram, 3 μM NECA, 60 min, phospho-CREB in CD8+ T cells by FACS
Procedure: Heparinised human whole blood was pre-incubated at 37° C. with serial dilutions of A2a antagonists for 20 min. and the phosphodiesterase inhibitor rolipram to amplify the pCREB response. The adenosine receptor agonist NECA is then added at a final concentration of 3 μM and following a 60 min incubation the blood is fixed and red blood cells lysed. White blood cells are isolated, permeabilized and stained with directly conjugated fluorescent antibodies to phospho-CREB (Alexa Fluor 488) and CD8 (Alexa Fluor 647) and the level of phospho-CREB in CD8+ T cells is measured by FACS using a BD Accuri C6 Flow Cytometer.

[5] = molecular target: T3, human Adenosine A1 receptor (Homo sapiens, UniProt P30542); test: Adenosine receptor TR-FRET binding assay (CA200645 displacement), A1
T3 sequence (P30542 1-326): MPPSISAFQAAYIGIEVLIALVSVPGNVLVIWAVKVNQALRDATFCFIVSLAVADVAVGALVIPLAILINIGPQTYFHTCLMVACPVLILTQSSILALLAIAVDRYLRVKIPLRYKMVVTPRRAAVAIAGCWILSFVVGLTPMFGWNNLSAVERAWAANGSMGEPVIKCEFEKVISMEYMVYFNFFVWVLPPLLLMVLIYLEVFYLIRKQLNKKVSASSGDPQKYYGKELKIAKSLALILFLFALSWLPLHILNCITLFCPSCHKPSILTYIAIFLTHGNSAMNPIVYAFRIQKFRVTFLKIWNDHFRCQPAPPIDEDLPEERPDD

[6] = molecular target: T4, human Adenosine A3 receptor (Homo sapiens, UniProt P0DMS8); test: Adenosine receptor TR-FRET binding assay (CA200645 displacement), A3
T4 sequence (P0DMS8 1-318): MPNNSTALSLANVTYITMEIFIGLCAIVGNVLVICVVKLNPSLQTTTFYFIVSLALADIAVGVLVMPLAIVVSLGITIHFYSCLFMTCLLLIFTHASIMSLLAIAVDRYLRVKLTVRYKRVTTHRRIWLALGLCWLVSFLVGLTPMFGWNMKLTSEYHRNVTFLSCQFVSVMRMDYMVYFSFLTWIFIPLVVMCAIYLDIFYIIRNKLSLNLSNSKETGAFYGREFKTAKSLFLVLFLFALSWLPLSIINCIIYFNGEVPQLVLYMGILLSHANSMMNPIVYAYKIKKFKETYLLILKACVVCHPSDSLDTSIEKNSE

T1 sequence (P29274 whole entry): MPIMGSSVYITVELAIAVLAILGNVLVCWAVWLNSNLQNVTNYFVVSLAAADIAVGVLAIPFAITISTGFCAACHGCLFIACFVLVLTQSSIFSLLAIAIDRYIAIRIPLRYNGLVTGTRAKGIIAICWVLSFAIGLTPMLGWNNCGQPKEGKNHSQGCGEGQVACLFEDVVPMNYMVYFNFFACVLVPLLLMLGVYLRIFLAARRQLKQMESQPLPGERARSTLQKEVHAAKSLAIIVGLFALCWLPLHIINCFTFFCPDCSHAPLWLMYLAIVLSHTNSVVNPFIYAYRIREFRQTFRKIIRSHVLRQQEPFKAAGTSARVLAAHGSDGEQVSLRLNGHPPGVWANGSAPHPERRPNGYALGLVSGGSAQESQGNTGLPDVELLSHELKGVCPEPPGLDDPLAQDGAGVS

SMILES | pKi [1] | pKi [2] | pIC50 [4] | pKi [5] | pKi [6] | pIC50 [3]
Cc1cc(-c2c(-c3cccc(C#N)c3)nn3ccc(C(=O)N[C@@H](C)C(C)(C)O)nc23)cc(C)n1 [Example 92, 2-(3-Cyanophenyl)-3-(2,6-dimethyl-4-pyridyl)-N-[(1S)-2-hydroxy-1,2-dimethyl-propyl]pyrazolo[1,5-a]pyrimidine-5-carboxamide] | 9.40 | 7.43 | 7.70 | 6.97 | 5.83 | 8.40
Cc1cc(-c2c(-c3cccc(C#N)c3)nn3ccc(C(=O)N[C@@H](C)[C@H](O)CO)nc23)cc(Cl)n1 [Example 7.19, 3-(2-Chloro-6-methyl-4-pyridyl)-2-(3-cyanophenyl)-N-[(1S,2S)-2,3-dihydroxy-1-methyl-propyl]pyrazolo[1,5-a]pyrimidine-5-carboxamide] | 10.00 | 8.40 | 7.00 | 7.70 | 5.85 | 8.40
Cc1cc(-c2c(-c3cccc(C#N)c3)nn3ccc(C(=O)NC[C@H](O)CO)nc23)cc(Cl)n1 [Example 6.13, 3-(2-Chloro-6-methyl-4-pyridyl)-2-(3-cyanophenyl)-N-[(2S)-2,3-dihydroxypropyl]pyrazolo[1,5-a]pyrimidine-5-carboxamide] | 8.77 | 7.77 | 6.41 | 6.37 | < 6.00 | 7.49
Cc1cc(-c2c(-c3cccc(C#N)c3)nn3ccc(C(=O)N[C@H]4C[C@H](O)C4)nc23)cc(Cl)n1 [Example 6.19, 3-(2-Chloro-6-methyl-4-pyridyl)-2-(3-cyanophenyl)-N-(trans-3-hydroxycyclobutyl)pyrazolo[1,5-a]pyrimidine-5-carboxamide] | 9.52 | 7.66 | 6.33 | 6.34 | < 6.00 | 7.59
Cc1cc(-c2c(-c3cccc(C#N)c3)nn3ccc(N4CC5CCC(C4)O5)nc23)cc(Cl)n1 [Example 2.12] | 8.82 | 7.66 | 5.38 | 7.06 | 5.63 | 7.49
Cc1cc(-c2c(-c3cccc(C#N)c3)nn3ccc(C(=O)NC(C)(C)CN)nc23)cc(Cl)n1 [Example 7.3, N-(2-Amino-1,1-dimethyl-ethyl)-3-(2-chloro-6-methyl-4-pyridyl)-2-(3-cyanophenyl)pyrazolo[1,5-a]pyrimidine-5-carboxamide] | 8.54 | 7.82 | 5.74 | 7.36 | < 6.00 | 6.76
Cc1cc(-c2c(-c3cccc(C#N)c3)nn3ccc(NC(N)=O)nc23)cc(Cl)n1 [Example 30, [3-(2-Chloro-6-methyl-4-pyridyl)-2-(3-cyanophenyl)pyrazolo[1,5-a]pyrimidin-5-yl]urea] | 9.10 | 8.30 | 6.19 | 7.24 | < 6.00 | 7.68
Cc1cc(-c2c(-c3cccc(C#N)c3)nn3ccc(N4CCOC[C@H]4C(=O)O)nc23)cc(Cl)n1 [Example 2.3] | 9.22 | 8.40 | 5.90 | 7.68 | 5.89 | 7.92
Cc1cc(-c2c(-c3cccc(C#N)c3)nn3ccc(C(N)=O)nc23)cc(Cl)n1 [Example 5.6] | 8.34 | 7.80 | 5.07 | 6.52 | < 6.00 | 7.80
Cc1cc(-c2c(-c3cccc(C#N)c3)nn3ccc(OC4CCNCC4)nc23)cc(Cl)n1 [Example 24, 3-[3-(2-Chloro-6-methyl-4-pyridyl)-5-(4-piperidyloxy)pyrazolo[1,5-a]pyrimidin-2-yl]benzonitrile] | 9.22 | 7.80 | 5.44 | 6.67 | < 6.00 | 7.29
Cc1cc(-c2c(-c3cccc(C#N)c3)nn3ccc(NCC(C)(C)O)nc23)cc(Cl)n1 [Example 2, 3-[3-(2-Chloro-6-methyl-4-pyridyl)-5-[(2-hydroxy-2-methyl-propyl)amino]pyrazolo[1,5-a]pyrimidin-2-yl]benzonitrile] | 8.41 | 7.17 | 6.38 | 6.44 | < 6.00 | 7.08
Cc1cc(-c2c(-c3cccc(C#N)c3)nn3ccc(C(=O)N[C@@H](C)C(C)(C)O)nc23)cc(Cl)n1 [Example 6, 3-(2-Chloro-6-methyl-4-pyridyl)-2-(3-cyanophenyl)-N-[(1S)-2-hydroxy-1,2-dimethyl-propyl]pyrazolo[1,5-a]pyrimidine-5-carboxamide] | 10.00 | 8.22 | 7.52 | 7.24 | 6.02 | 8.70
Cc1cc(-c2c(-c3cccc(C#N)c3)nn3ccc(NC45CC(O)(C4)C5)nc23)cc(Cl)n1 [Example 2.1] | 9.40 | 8.52 | 5.84 | 7.68 | < 6.00 | 7.92

Second part, led by results:

pKi [1] | pKi [2] | pIC50 [4] | pKi [5] | pKi [6] | SMILES | pIC50 [3]
8.92 | 8.15 | 6.28 | 7.09 | 5.69 | Cc1cc(-c2c(-c3cccc(C#N)c3)nn3ccc(NC(=O)CC(C)(C)O)nc23)cc(Cl)n1 [Example 94.2, N-[3-(2-chloro-6-methyl-4-pyridyl)-2-(3-cyanophenyl)pyrazolo[1,5-a]pyrimidin-5-yl]-3-hydroxy-3-methyl-butanamide] | 7.70
9.00 | 7.12 | 6.43 | 6.60 | 6.16 | COc1cc(-c2c(-c3cccc(C#N)c3)nn3ccc(C(=O)NCC(C)(C)O)nc23)cc(C)n1 [Example 12.6, 2-(3-Cyanophenyl)-N-(2-hydroxy-2-methyl-propyl)-3-(2-methoxy-6-methyl-4-pyridyl)pyrazolo[1,5-a]pyrimidine-5-carboxamide] | 8.05
8.85 | 8.10 | 5.98 | 6.94 | 5.59 | Cc1cc(-c2c(-c3cccc(C#N)c3)nn3ccc(NC(=N)N)nc23)cc(Cl)n1 [Example 16.1, 1-[3-(2-Chloro-6-methyl-4-pyridyl)-2-(3-cyanophenyl)pyrazolo[1,5-a]pyrimidin-5-yl]guanidine] | 7.11
8.70 | 8.15 | 6.59 | 6.67 | < 6.00 | Cc1cc(-c2c(-c3cccc(C#N)c3)nn3ccc(C(=O)NCC4(O)COC4)nc23)cc(C)n1 [Example 92.3] | 7.96
10.00 | 8.22 | 7.10 | 7.33 | 6.07 | Cc1cc(-c2c(-c3cccc(C#N)c3)nn3ccc(C(=O)NCC(C)(C)O)nc23)cc(C(F)(F)F)n1 [Example 12.9, 2-(3-Cyanophenyl)-N-(2-hydroxy-2-methyl-propyl)-3-[2-methyl-6-(trifluoromethyl)-4-pyridyl]pyrazolo[1,5-a]pyrimidine-5-carboxamide] | 8.70
